In patent US4997850A, “Treating agent for osteroarthritis” (Kureha Kagaku Kogyo Kabushiki Kaisha, priority 1989, dated 1991):
Counter-ions that a name gives are not always drawn.

How the values were obtained:
[1] = Acute toxicity (LD50) of PAC in male mice; format: in vivo; details: intraperitoneal
[2] = test system: IL-1α production in human synovial cells; assay: Inhibition of IL-1α production in human synovial cells; format: cell-based; details: 33 μM; TPA and A 23187 stimulation, 40 hours
Experimental: (§1) Human synovial membrane obtained at an operation was treated with collagenase to obtain synovial cells, which were subcultured several times and inoculated on a 12-well culture dish. On reaching to confluence, the cells were provided to the test described below. The synovial cells produce IL-1 but release only a little amount and accordingly are appropriate cells to study an inhibition or an acceleration of IL-1 intracellular production.
(§2) Each DMSO (dimethylsulfoxide) solution containing one of ACP, PAL and PAC separately in a concentration of 400 times that of the final test and DMSO solution not containing any of the compound as a control, were diluted to 40 times in its volume with a medium containing fetal bovine serum (hereinafter referred to as "FBS") [Ham Medium]. 100 μl of the diluted solution was added to each well and further, 800 μl of the medium [Ham] was added to each well. […] The concentration of TPA and the ionophore in the medium were adjusted so that their final concentration in the well became 0.1 μg/ml and 0.2 μg/ml, respectively and a production of IL-1 was stimulated. Final volume of the liquid (medium) per well was 1 ml/well. After 40 hours of culture, liquid portion was removed from each well and 1 ml of a Ham medium was added to the remaining cells in each well. Freeze-thawing was repeated on the medium containing the cells several times to destroy all the cells in the medium and supernatants containing intracellular substances were obtained by centrifugation. IL-1α and IL-1β in the supernatant were determined by ELISA method using a prescribed enzyme-antibody-complex (manufactured by OHTSUKA SEIYAKU, Co., Ltd.) as intracellular IL-1s. [Refer to ENSHO, vol.

[3] = test system: IL-1β production in human synovial cells; assay: Inhibition of IL-1β production in human synovial cells; format: cell-based; details: 33 μM; TPA and A 23187 stimulation, 40 hours
Experimental: as §1, §2

[4] = test system: IL-1 release from cultured cartilage cells; assay: Inhibition of IL-1 release from cultured cartilage cells; format: cell-based, rabbit; details: 3.3 μM; TPA and A 23187 stimulation, 24 hours
Experimental: Cartilages were aseptically taken out from knee and shoulder joints of young rabbit, treated with a Ham medium containing 0.2% collagenase and separated each other into single cells. After washed two times with a Ham medium containing 10% FBS, the cells were dispersed into the Ham medium containing 10% FBS at a concentration of 10^5 cells/ml. […] After 24 hours of cultivation, IL-1 released into each of the supernatants was measured by a bioassay applying an incorporated amount of ^3 H-thymidine (^3 H-TdR) as an index. […] In the Figure, "Intact" means a case TPA and the ionophore were not added and accordingly no stimulation of IL-1 release was given.

[5] = test system: proteoglycan (PG) in cultured cartilage cells; assay: Synthesis, release and remaining amount of proteoglycan (PG) in cultured cartilage cells; format: cell-based, rat
Experimental: Costal cartilage was aseptically taken out from male SD rats of 4 weeks age, enzymatically treated to separate it into single cells, then inoculated into a 12-well culture dish and cultured under an atmosphere containing 5% CO2 at 37° C. After the chondrocytes had been grown to confluence, 1 to 10 μM of PAL or 10 to 100 μM of PAC was added and three hours later, 2 μCi of Na2^35 SO4 was further added to each well. Twenty four hours later, the synthesis amount in, release amount from and remaining amount of PG in the matrix were determined using amount of ^35 S as an index. […] In the Figures, the PG release in the control was defined as 100%. […] In FIGS. 4(a), 4(b) and 4(c), the released amount of PG means the amount representing the PG degraded in and released from cartilage matrixes, which was calculated on a basis of ^35 S in the culture medium. The remaining amount of PG means the PG not degraded in the matrixes and was also calculated in the same way as above. Sum of the released and the remaining amounts of PG is thought to be a synthesized PG.

[6] = test system: proteoglycan (PG) release under IL-1α; assay: Proteoglycan (PG) release from prelabelled cultured cartilage matrix with addition of IL-1α; format: cell-based; details: for inhibiting activity on PG release (further compounds): concentration not given; for inhibition of PG release under IL-1α: 20 units of IL-1α, 10 μM
Experimental: Further, to a cultured cartilage matrix, in which PG is prelabelled in advance with 1 μCi of Na2^35 SO4, 20 units of IL-1α was added to each group including control group and 10 μM of PAL, 100 μM of PAL or 10 μM of ACP was added to each test group and studied the effect of each compound to the PG release from the cells.

[7] = Acute toxicity (LD50) of further compounds, determined in the same manner as ACP; format: in vivo; details: same manner as ACP (oral or subcutaneous, mice and rats)
Experimental: For oral administration, a suspension of ACP dispersed in an aqueous solution of 0.5% methylcellulose and 0.4% Tween 80 (nonionic surfactant, manufactured by TOKYO KASEI, Co., Ltd.) was prepared and administered to the animals via a stomach sonde. For subcutaneous administration, a suspension of ACP dispersed in an aqueous physiological saline solution containing 0.5% of carboxymethyl cellulose sodium (hereinafter referred to as "CMC") was prepared and injected to the animals with a syringe.
Further, the acute toxicities (LD50) of […]

[8] = test system: IL-1 release from human monocyte; assay: Inhibition of IL-1 (IL-1α and IL-1β) release from human monocyte; format: cell-based; details: 3.3 μM; LPS 10 μg/ml, 42 hours
Experimental: Monocyte were isolated from human venous blood by density-gradient centrifugation using a Ficoll-paque solution and obtained the cells having a purity of not less than 95% by purifying with a monocyte-separating plate. After dispersing the cells in a medium, RPMI 1640, containing 10% of FBS, the monocyte were inoculated in a culture dish in a ratio of 10^6 cells/3 ml/well and cultured under an atmosphere containing 5% CO2 at 37° C. for 30 minutes. Then, each 15 μl of DMSO solution of one of ACP, PAL and PAC was added to each well (a final DMSO concentration of 0.5%) and 30 minutes later a lipopolysaccharide (hereinafter referred to as "LPS"), a substance to stimulate IL-1 production, was added at a final LPS concentration of 10 μg/ml and they were cultured for 42 hours. Then, the reacted culture medium was recovered and accompanied cells with the medium were separated by centrifugation and obtained the supernatant free of cell. IL-1α and IL-1β released from the cells were measured by ELISA method in the same manner as in item (i) above.

Structure (SMILES) | inhibiting activity on PG release (further compounds) [6] | acute toxicities (LD50), compared with ACP [7] | other results
O=C(O)c1ccc(O)c(O)c1 [sodium salt of PAC] | – | – | LD50 value, compared with PAC ([1]; level relative to PAC (not less than 400 mg/kg)): same level of LD50 value
O=C(O)c1ccc(O)c(O)c1 [PAC, 3,4-dihydroxybenzoic acid] | same effects | – | LD50 at 192 h ([1]; mouse, in vivo, ip, observed 8 days): ≥ 400 mg/kg; inhibiting activity of IL-1α production [2]: inhibiting activity of IL-1α only; inhibiting activity of IL-1β production [3]: inhibiting activity of IL-1α only; inhibition of IL-1 release from cartilage cells [4]: inhibit the release of IL-1; effect on PG synthesis ([5]; PAL 1 to 10 μM, PAC 10 to 100 μM, 24 hours): no effect; inhibition of PG release ([5]; PAL 1 to 10 μM, PAC 10 to 100 μM, control release 100%): exhibited inhibiting activities on the PG release; remaining amount of PG in the matrix ([5]; PAL between 1 and 3.3 μM, PAC between 10 and 100 μM): increased in proportion to the adding amount
CCCC(=O)Oc1ccc(C(OC(=O)CCC)OC(=O)CCC)cc1OC(=O)CCC [3,4-di-n-butyryloxybenzylidene di-n-butyrate] | same effects | approximately same values | –
CCCCCCCCCCCCCC(=O)Oc1ccc(C(OC(=O)CCCCCCCCCCCCC)OC(=O)CCCCCCCCCCCCC)cc1OC(=O)CCCCCCCCCCCCC [3,4-di-n-tetradecanoyloxybenzylidene di-n-tetradecanoate] | same effects | approximately same values | –
CCCCCCCCCCCCCCCCCC(=O)Oc1ccc(C(OC(C)=O)OC(C)=O)cc1OC(=O)CCCCCCCCCCCCCCCCC [3,4-di-n-octadecanoyloxybenzylidene diacetate] | same effects | approximately same values | –
CCCCCCCCCCCC(=O)Oc1ccc(C(OC(=O)CCCCCCCCCCC)OC(=O)CCCCCCCCCCC)cc1OC(=O)CCCCCCCCCCC [3,4-di-n-dodecanoyloxybenzylidene di-n-dodecanoate] | – | approximately same values | inhibition of IL-1 release [8]: significantly inhibit; inhibition of PG release under IL-1α [6]: inhibited the release amount of PG
O=C(Oc1ccc(C(OC(=O)c2ccccc2)OC(=O)c2ccccc2)cc1OC(=O)c1ccccc1)c1ccccc1 [3,4-dibenzoyloxybenzylidene dibenzoate] | – | approximately same values | inhibition of IL-1 release [8]: significantly inhibit; inhibition of PG release under IL-1α [6]: inhibited the release amount of PG
CCC(=O)Oc1ccc(C(OC(=O)CC)OC(=O)CC)cc1OC(=O)CC [3,4-di-n-propionyloxybenzylidene di-n-propionate] | – | approximately same values | inhibition of IL-1 release [8]: significantly inhibit; inhibition of PG release under IL-1α [6]: inhibited the release amount of PG
CC(=O)Oc1ccc(C=O)cc1OC(C)=O [3,4-diacetoxybenzaldehyde] | same effects | approximately same values | –
CCCCCCCCCCCCCCCC(=O)Oc1ccc(C(OC(=O)CCCCCCCCCCCCCCC)OC(=O)CCCCCCCCCCCCCCC)cc1OC(=O)CCCCCCCCCCCCCCC [3,4-di-n-hexadecanoyloxybenzylidene di-n-hexadecanoate] | same effects | approximately same values | –
CC(=O)Oc1ccc(C(=O)[O-])cc1OC(C)=O.[Na+] [3,4-diacetoxybenzoic acid sodium salt] | same effects | approximately same values | –
CC(=O)Oc1ccc(C(=O)O)cc1OC(C)=O [3,4-diacetoxybenzoic acid] | same effects | approximately same values | –
O=Cc1ccc(OC(=O)c2ccccc2)c(OC(=O)c2ccccc2)c1 [3,4-dibenzoyloxybenzaldehyde] | same effects | approximately same values | –
CCCCCCCCCCCCCCCCCC(=O)Oc1ccc(C(OC(=O)CCCCCCCCCCCCCCCCC)OC(=O)CCCCCCCCCCCCCCCCC)cc1OC(=O)CCCCCCCCCCCCCCCCC [3,4-di-n-octadecanoyloxybenzylidene di-n-octadecanoate] | – | approximately same values | inhibition of IL-1 release [8]: significantly inhibit; inhibition of PG release under IL-1α [6]: inhibited the release amount of PG
CCCCCCCCCCCCCCCCCC(=O)Oc1ccc(C=O)cc1OC(=O)CCCCCCCCCCCCCCCCC [3,4-di-n-octadecanoyloxybenzaldehyde] | same effects | approximately same values | –
CCCCCCCCCCCCCCCCCC(=O)OC(OC(=O)CCCCCCCCCCCCCCCCC)c1ccc(OC(C)=O)c(OC(C)=O)c1 [3,4-diacetoxybenzylidene di-n-octadecanoate] | same effects | approximately same values | –
